Among the data in patent US12281149B2, “Modulators of G-protein coupled receptors” (priority 2021, dated 2025) are EC50 and Emax values, retold here.

Each structure is given as a SMILES string. *1 amine or outer side, *2 acyl side, *3 side chain or, on linkers, in order; H or OH if unused. Where a SMILES comes first, the peptide text is derived from it. Side-chain parts run from the residue outwards. [ ]: non-standard residue; d: D form. The star is where a group is joined. Isobutyryl(2-(3-CN-5-F-Ph)) = CC(C)(C(=O)*)c1cc(F)cc(C#N)c1; Cyclopropanecarbonyl(1-Ph) = O=C(C1(c2ccccc2)CC1)*; C20 diacid = O=C(O)CCCCCCCCCCCCCCCCCCC(=O)*; γGlu = O=C(O)[C@H](CCC(=O)[*:2])N[*:1]; Gla = N[C@@H](CC(C(=O)O)C(=O)O)C(=O)O; X80 = CC1CC(C(=O)*)(n2cccn2)CCO1; AEEA = NCCOCCOCC(=O)O; Aib = CC(C)(N)C(=O)O; βAla = NCCC(=O)O Bounds are passed on as bounds.

Format in all cases: cell-based
Assay [1] deals with T1, GLP-1 receptor (Homo sapiens, UniProt P43220). Nature of the assay: PathHunter β-arrestin assay, GLP-1 receptor. Also noted: host or cells: PathHunter CHO-K1 GLP1R β-Arrestin Cell Line. The settings on record: β-arrestin-2 recruitment, PathHunter CHO-K1 GLP1R β-Arrestin Cell Line, 90 min at 37° C.; normalized to GLP-1; read-out: GLP-1R β Arrestin EC50.
T1 sequence (P43220 24-463): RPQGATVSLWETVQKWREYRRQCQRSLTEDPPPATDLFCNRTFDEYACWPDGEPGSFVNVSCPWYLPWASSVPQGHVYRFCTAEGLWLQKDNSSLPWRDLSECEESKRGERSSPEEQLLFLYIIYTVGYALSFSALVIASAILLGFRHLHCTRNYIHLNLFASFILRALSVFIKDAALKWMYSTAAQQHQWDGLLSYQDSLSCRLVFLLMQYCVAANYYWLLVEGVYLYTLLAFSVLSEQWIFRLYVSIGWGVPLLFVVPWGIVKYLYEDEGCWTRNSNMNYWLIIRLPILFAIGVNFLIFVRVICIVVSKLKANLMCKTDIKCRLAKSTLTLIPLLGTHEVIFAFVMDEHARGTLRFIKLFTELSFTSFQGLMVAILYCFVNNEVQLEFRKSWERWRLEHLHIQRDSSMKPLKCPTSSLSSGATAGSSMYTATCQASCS
Assay [2] deals with T2, GIP receptor (Homo sapiens, UniProt P48546).
T2 sequence (P48546 22-466): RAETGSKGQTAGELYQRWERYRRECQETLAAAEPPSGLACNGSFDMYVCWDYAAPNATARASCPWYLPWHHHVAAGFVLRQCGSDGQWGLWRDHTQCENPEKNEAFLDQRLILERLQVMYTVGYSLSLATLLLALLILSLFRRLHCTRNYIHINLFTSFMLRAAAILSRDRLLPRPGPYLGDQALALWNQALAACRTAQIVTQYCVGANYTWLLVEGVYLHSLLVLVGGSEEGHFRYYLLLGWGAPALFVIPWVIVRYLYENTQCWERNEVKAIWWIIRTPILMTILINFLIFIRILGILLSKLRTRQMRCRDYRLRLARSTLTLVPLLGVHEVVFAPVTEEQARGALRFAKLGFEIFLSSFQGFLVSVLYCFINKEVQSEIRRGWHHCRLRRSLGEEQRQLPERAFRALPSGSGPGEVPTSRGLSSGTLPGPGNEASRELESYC
The experiment in a line: HitHunter cAMP assay, GIP receptor. The settings on record: for EC50: CHO cells stably expressing GIP receptor, cAMP accumulation, 30 min, read-out: EC50 GIP-1R; for Emax: CHO cells, cAMP, normalized to maximum signal from GIP (high) and DMSO (low), read-out: Emax GIP-1R.

Assay [3] addresses T2, GIP receptor. The experiment in a line: PathHunter β-arrestin assay, GIP receptor. The settings on record: β-arrestin-2 recruitment, PathHunter CHO-K1 GIPR β-Arrestin Cell Line, 90 min at 37° C.; normalized to GIP; read-out: GIPR β Arrestin EC50. Also noted: host or cells: PathHunter CHO-K1 GIPR β-Arrestin Cell Line.
Description: β-arrestin-2 recruitment for GLP-1 receptor or GIP receptor was measured using the DiscoverX PathHunter Detection Kit and PathHunter® CHO-K1 GLPIR β-Arrestin Cell Line or PathHunter® CHO-K1 GIPR β-Arrestin Cell Line, respectively). Briefly, cells were grown in Ham's F12 Nutrient Mix with 10% FBS and lifted with Cell dissociation buffer, Enzyme free, PBS based (ThermoFisher). Harvested cells were pelleted and resuspended in Assay Complete Cell Plating Reagent 2 and 5000 cells per well were plated in tissue culture treated 384-well small volume white assay plates. Plates were then incubated at 37° C. and 5% CO2 overnight. The media was then replaced with fresh Assay Complete Cell Plating Reagent 2. Cells were then treated with 10 nl compound in DMSO using an ECHO 550 acoustic dispenser (Labcyte) in a 20-point dose response format in duplicate for 90 min at 37° C. The assay was then completed according to the manufacturer's instructions. Luminescence was measured using a Perkin Elmer Envision plate reader. Raw data was normalized to the maximum signal from GLP-1 or GIP (high) and DMSO (low). Dose response curves were analyzed using GraphPad Prism 9.0.
The target in assay [4] is T1, GLP-1 receptor. The experiment in a line: HitHunter cAMP assay, GLP-1 receptor. The settings on record: for EC50: CHO cells stably expressing human GLP-1 receptor, cAMP accumulation, 30 min, read-out: EC50 GLP-1R; for Emax: CHO cells, cAMP, normalized to maximum signal from GLP-1 (high) and DMSO (low), read-out: Emax GLP-1R.

With `CC[C@H](C)[C@H](NC(=O)[C@H](CC(C)C)NC(=O)[C@H](Cc1c[nH]c2ccccc12)NC(=O)[C@H](CCC(N)=O)NC(=O)[C@@H](NC(=O)[C@H](Cc1ccccc1)NC(=O)[C@H](C)NC(=O)[C@H](CCCCNC(=O)COCCOCCNC(=O)COCCOCCNC(=O)CC[C@H](NC(=O)CCCCCCCCCCCCCCCCCCC(=O)O)C(=O)O)NC(=O)[C@H](CCC(N)=O)NC(=O)[C@H](C)NC(=O)[C@@H](NC(=O)[C@H](CCCCN)NC(=O)[C@H](CC(=O)O)NC(=O)[C@H](CC(C)C)NC(=O)C(C)(C)NC(=O)[C@@H](NC(=O)[C@H](CO)NC(=O)[C@H](Cc1ccc(O)cc1)NC(=O)[C@H](CC(=O)O)NC(=O)[C@H](CO)NC(=O)[C@@H](NC(=O)[C@H](Cc1ccccc1)NC(=O)[C@@H](NC(=O)CNC(=O)[C@H](CCC(=O)O)NC(=O)CCNC(=O)C1(c2ccccc2)CC1)[C@@H](C)O)[C@@H](C)O)[C@@H](C)CC)[C@@H](C)CC)C(C)C)C(=O)N[C@@H](C)C(=O)NCC(=O)NCC(=O)N1CCC[C@H]1C(=O)N[C@@H](CO)C(=O)N[C@@H](CO)C(=O)NCC(=O)N[C@@H](C)C(=O)N1CCC[C@H]1C(=O)N1CCC[C@H]1C(=O)N1CCC[C@H]1C(=O)N[C@@H](CO)C(N)=O` [Compound 199] ({Cyclopropanecarbonyl(1-Ph)-βAla}-EGTFTSDYSI[Aib]LDKIAQK([AEEA-AEEA-γGlu-C20 diacid])AFVQWLIAGGPSSGAPPPS-NH2), the EC50 is more than 1000 nM in assay [1], 10 to 100 nM in assay [2], more than 1000 nM in assay [3] and 1 to 10 nM in assay [4]. In addition, the figures for the Emax in assay [2] and in assay [4] were 102% and 100%, respectively.
As for `CC[C@H](C)[C@H](NC(=O)[C@H](CC(C)C)NC(=O)[C@H](Cc1c[nH]c2ccccc12)NC(=O)[C@H](CCC(N)=O)NC(=O)[C@@H](NC(=O)[C@H](Cc1ccccc1)NC(=O)[C@H](C)NC(=O)[C@H](CCCCNC(=O)COCCOCCNC(=O)COCCOCCNC(=O)CC[C@H](NC(=O)CCCCCCCCCCCCCCCCCCC(=O)O)C(=O)O)NC(=O)[C@H](CCC(N)=O)NC(=O)[C@H](C)NC(=O)[C@@H](NC(=O)[C@H](CCCCN)NC(=O)[C@H](CC(=O)O)NC(=O)[C@H](CC(C)C)NC(=O)C(C)(C)NC(=O)[C@@H](NC(=O)[C@H](CO)NC(=O)[C@H](Cc1ccc(O)cc1)NC(=O)[C@H](CC(=O)O)NC(=O)[C@H](CO)NC(=O)[C@@H](NC(=O)[C@H](Cc1ccccc1)NC(=O)[C@@H](NC(=O)CNC(=O)[C@H](CCC(=O)O)NC(=O)CCNC(=O)C1(n2cccn2)CCOC(C)C1)[C@@H](C)O)[C@@H](C)O)[C@@H](C)CC)[C@@H](C)CC)C(C)C)C(=O)N[C@@H](C)C(=O)NCC(=O)NCC(=O)N1CCC[C@H]1C(=O)N[C@@H](CO)C(=O)N[C@@H](CO)C(=O)NCC(=O)N[C@@H](C)C(=O)N1CCC[C@H]1C(=O)N1CCC[C@H]1C(=O)N1CCC[C@H]1C(=O)N[C@@H](CO)C(N)=O` (stereo partly drawn) [Compound 105] ({X80-βAla}-EGTFTSDYSI[Aib]LDKIAQK([AEEA-AEEA-γGlu-C20 diacid])AFVQWLIAGGPSSGAPPPS-NH2), the EC50 in assay [1] is more than 1000 nM; in assay [2], 1 to 10 nM; in assay [3], more than 1000 nM; in assay [4], 0.1 to 1 nM. For the same molecule, the maximal response (Emax) in assay [2] was 112%; in assay [4], 95%.
With `CC[C@H](C)[C@H](NC(=O)[C@H](CC(C)C)NC(=O)[C@H](Cc1c[nH]c2ccccc12)NC(=O)[C@H](CCC(N)=O)NC(=O)[C@@H](NC(=O)[C@H](Cc1ccccc1)NC(=O)[C@H](C)NC(=O)[C@H](CCCCNC(=O)COCCOCCNC(=O)COCCOCCNC(=O)CC[C@H](NC(=O)CCCCCCCCCCCCCCCCCCC(=O)O)C(=O)O)NC(=O)[C@H](CCC(N)=O)NC(=O)[C@H](C)NC(=O)[C@@H](NC(=O)[C@H](CCCCN)NC(=O)[C@H](CC(=O)O)NC(=O)[C@H](CC(C)C)NC(=O)C(C)(C)NC(=O)[C@@H](NC(=O)[C@H](CO)NC(=O)[C@H](Cc1ccc(O)cc1)NC(=O)[C@H](CC(=O)O)NC(=O)[C@H](CO)NC(=O)[C@@H](NC(=O)[C@H](Cc1ccccc1)NC(=O)[C@@H](NC(=O)CNC(=O)[C@H](CC(C(=O)O)C(=O)O)NC(=O)CCNC(=O)C(C)(C)c1cc(F)cc(C#N)c1)[C@@H](C)O)[C@@H](C)O)[C@@H](C)CC)[C@@H](C)CC)C(C)C)C(=O)N[C@@H](C)C(=O)NCC(=O)NCC(=O)N1CCC[C@H]1C(=O)N[C@@H](CO)C(=O)N[C@@H](CO)C(=O)NCC(=O)N[C@@H](C)C(=O)N1CCC[C@H]1C(=O)N1CCC[C@H]1C(=O)N1CCC[C@H]1C(=O)N[C@@H](CO)C(N)=O` [Compound 111] ({Isobutyryl(2-(3-CN-5-F-Ph))-βAla}-[Gla]GTFTSDYSI[Aib]LDKIAQK([AEEA-AEEA-γGlu-C20 diacid])AFVQWLIAGGPSSGAPPPS-NH2), the EC50 in assay [1] was more than 1000 nM; in assay [2] it was 10 to 100 nM; in assay [3], more than 1000 nM; in assay [4] it was 1 to 10 nM. Also, the Emax was determined as 105% in assay [2] and 95% in assay [4].
For the molecule `CC[C@H](C)[C@H](NC(=O)[C@H](CC(C)C)NC(=O)[C@H](Cc1c[nH]c2ccccc12)NC(=O)[C@H](CCC(N)=O)NC(=O)[C@@H](NC(=O)[C@H](Cc1ccccc1)NC(=O)[C@H](C)NC(=O)[C@H](CCCCNC(=O)COCCOCCNC(=O)COCCOCCNC(=O)CC[C@H](NC(=O)CCCCCCCCCCCCCCCCCCC(=O)O)C(=O)O)NC(=O)[C@H](CCC(N)=O)NC(=O)[C@H](C)NC(=O)[C@@H](NC(=O)[C@H](CCCCN)NC(=O)[C@H](CC(=O)O)NC(=O)[C@H](CC(C)C)NC(=O)C(C)(C)NC(=O)[C@@H](NC(=O)[C@H](CO)NC(=O)[C@H](Cc1ccc(O)cc1)NC(=O)[C@H](CC(=O)O)NC(=O)[C@H](CO)NC(=O)[C@H](C)NC(=O)[C@H](Cc1ccccc1)NC(=O)[C@@H](NC(=O)CNC(=O)[C@H](CCC(=O)O)NC(=O)CCNC(=O)C(C)(C)c1cc(F)cc(C#N)c1)[C@@H](C)O)[C@@H](C)CC)[C@@H](C)CC)C(C)C)C(=O)N[C@@H](C)C(=O)NCC(=O)NCC(=O)N1CCC[C@H]1C(=O)N[C@@H](CO)C(=O)N[C@@H](CO)C(=O)NCC(=O)N[C@@H](C)C(=O)N1CCC[C@H]1C(=O)N1CCC[C@H]1C(=O)N1CCC[C@H]1C(=O)N[C@@H](CO)C(N)=O` [Compound 168] ({Isobutyryl(2-(3-CN-5-F-Ph))-βAla}-EGTFASDYSI[Aib]LDKIAQK([AEEA-AEEA-γGlu-C20 diacid])AFVQWLIAGGPSSGAPPPS-NH2), the concentration giving a half-maximal response (EC50) in assay [1] is more than 1000 nM; in assay [2], 1 to 10 nM; in assay [3], less than 1000 nM; in assay [4] it was 10 to 100 nM. Besides, the values for the Emax in assay [2] and in assay [4] were 112% and 87%, respectively.
Regarding `CC[C@H](C)[C@H](NC(=O)[C@H](CO)NC(=O)[C@H](CCCCNC(=O)COCCOCCNC(=O)COCCOCCNC(=O)CC[C@H](NC(=O)CCCCCCCCCCCCCCCCCCC(=O)O)C(=O)O)NC(=O)[C@H](CC(=O)O)NC(=O)[C@H](CO)NC(=O)[C@@H](NC(=O)[C@H](Cc1ccccc1)NC(=O)[C@@H](NC(=O)CNC(=O)[C@H](CCC(=O)O)NC(=O)CCNC(=O)[C@]1(c2ccccc2)CNC(=O)C1)[C@@H](C)O)[C@@H](C)O)C(=O)N[C@@H](Cc1ccc(O)cc1)C(=O)N[C@@H](CC(C)C)C(=O)N[C@@H](CC(=O)O)C(=O)N[C@@H](CCCCN)C(=O)N[C@@H](CCC(N)=O)C(=O)N[C@@H](C)C(=O)N[C@@H](C)C(=O)NC(C)(C)C(=O)N[C@@H](CCC(=O)O)C(=O)N[C@@H](Cc1ccccc1)C(=O)N[C@H](C(=O)N[C@@H](CC(N)=O)C(=O)N[C@@H](Cc1c[nH]c2ccccc12)C(=O)N[C@@H](CC(C)C)C(=O)N[C@@H](CC(C)C)C(=O)N[C@@H](C)C(=O)NCC(=O)NCC(=O)N1CCC[C@H]1C(=O)N[C@@H](CO)C(=O)N[C@@H](CO)C(=O)NCC(=O)N[C@@H](C)C(=O)N1CCC[C@H]1C(=O)N1CCC[C@H]1C(=O)N1CCC[C@H]1C(=O)N[C@@H](CO)C(N)=O)C(C)C` (single isomer, unassigned) [Compound 129], the 50% effective concentration (EC50) in assay [1] was more than 1000 nM; in assay [2], 10 to 100 nM; in assay [3], more than 1000 nM; in assay [4] it was 1 to 10 nM. Besides, the figures for the maximum response (Emax) in assay [2] and in assay [4] were 106% and 108%, respectively.
